Experiments:
[1] = Acute toxicity in mice (Litchfield and Wilcoxon); type: in vivo; conditions: mouse, in vivo, po, administered orally
Protocol: (§1) Method of Litchfield and Wilcoxon (J. T. Litchfield and E. J. Wilcoxon: J. Pharmacol. Exp. Therap., 96, 19-113 (1949)).
(§2) The product is administered orally as a suspension in gum arabic at a concentration of 5% in double-distilled water. The volume administered is 10 - ml/kg. The 50% lethal dose (LD50) is calculated by the method cited.

gastric acid secretion = assay: Inhibition of gastric acid secretion in Shay rats (Shay's method, pylorus ligation); type: in vivo, Male Wistar rats; conditions: Rattus norvegicus, administered intraduodenally; for ED50: 2 h; for inhibition in vivo at 40 mg/kg: intraduodenal, 2 h after pylorus ligation, read-out: Percentage inhibition of gastric acid secretion
Source text: Shay's method [H. Shay; S. A. Komarov; S. S. Fels; D. Merange: M. Grvenstein; H. Siplet: Gastroenterology, 5, 43 (1945)--F. E. Visscber; P. H. Seay: A. P. Taxelaar; W. Veldkamp; M. J. Vander Brook: J. Pharmac. Exp. Ther., 110, 188 (1954)--"Animal Experiments in Pharmacological Analysis", F. R. Domer: C. C. Thomas, published by Springfield, Ill., U.S.A., 1970, p. 140].
Male Wistar rats weighing 200 to 250 grams are used in this test; they are fasted from the day preceding the day of the test, with free access to water. Groups containing a minimum of 4 animals each are used.
The rats are anesthetized with ethyl ether, a laparotomy is performed on them and their pylorus is ligated; the abdominal incision is then sewn up. The administration of the products, with the vehicle for the control group, is effected intraduodenally (i.d.) before the abdominal incision is sewn up. The dose administered in the first test is 40 mg/kg and the 50% effective dose (ED50), administered intraduodenally, is also determined in a second test. The vehicle used is gum arabic at a concentration of 5% w/v in double-distilled water.
Two hours after ligation of the pylorus, the rats are sacrificed by prolonged anesthesia with ethyl ether and the volume of gastric juice is measured; the total acidity is determined by means of a pH meter equipped with an automatic burette. For each product and each dose tested, the percentage inhibition of gastric acid secretion is determined relative to the control group.

[2] = tested on: gastric lesions induced by ethanol; assay: Gastric cytoprotection: inhibition of gastric lesions induced by ethanol; type: in vivo, Male Wistar rats; conditions: 40 mg/kg oral
Protocol: Male Wistar rats weighing 150 to 200 grams are used in this test; they are fasted for 24 hours, but with water "ad libitum". Groups containing a minimum of 5 animals each are used.
At the beginning of the study, the rats receive the products described, or the vehicle in the case of the rats in the control group, by oral administration using a stomach tube. The dose administered for the products described is 40 mg/kg. The vehicle employed is gum arabic at a concentration of 5% w/v in double-distilled water.
Thirty minutes after the treatment, the rats receive 1 ml of absolute ethanol by oral administration using a stomach tube. One hour after the treatment with ethanol, the rats are sacrificed by prolonged anesthesia with ethyl ether, their stomachs are extracted and opened along the greater curvature and the lesions in the stomach mucosa are evaluated. For this evaluation, the hemorrhage points are counted and the size of the necrotic ulcers is measured.
For each product tested, the percentage inhibition of gastric lesions is determined relative to the control group.

[3] = tested on: gastric lesions induced by stress due to immobilization and cold; assay: Ulcer-inhibiting activity: inhibition of gastric lesions induced by stress due to immobilization and cold; type: in vivo, Male Wistar rats; conditions: 40 mg/kg oral
Protocol: Male Wistar rats weighing […] to 200 grams are used in this test; they are fasted in individual cages for 24 hours before the study begins, but with water "ad libitum". Groups containing a minimum of 5 animals each are used.
At the start of the study, the rats receive the products described, or alternatively the vehicle in the case of the control group, by oral administration using a stomach tube. The administered dose of the products described is 40 mg/kg. The vehicle used is gum arabic at a concentration of 5% w/v in double-distilled water.
Immediately after the treatment, the rats are introduced into confined enclosures in the form of a plastic tube with a diameter of about 5 cm and a variable length which can be adapted to the size of the rat. One hour after the treatment, the rats, in their enclosures, are placed in a refrigerator at -5° C. for 3 hours. Immediately after exposure to the cold, the rats are killed by prolonged anesthesia with ethyl ether, the stomachs are extracted and opened along the greater curvature and the lesions in the stomach mucosa are evaluated. For this evaluation, the hemorrhage points are counted and the size of the necrotic ulcers is measured.
For each product and each dose tested, the percentage inhibition of gastric lesions is determined relative to the control group.

mice = assay: Acute toxicity in mice (Litchfield and Wilcoxon); type: in vivo; conditions: administered orally; female
Protocol: as §1, §2

[4] = relative to control (gum arabic)

| SMILES | LD50 ([1]; female) | LD50 ([1]; male) | ED50 (gastric acid secretion) | inhibition in vivo at 40 mg/kg (gastric acid secretion) | further results |
| --- | --- | --- | --- | --- | --- |
| O=S(=O)(NCCN1CCOCC1)c1nc2ccccc2[nH]1 [Example 6] | 2600 mg/kg | 3300 mg/kg | – | – | – |
| O=S(=O)(NCCCN1CCOCC1)c1nc2ccccc2[nH]1 [Example 8, N-[3-(4-Morpholinopropyl)]-1H-benzimidazole-2-sulfonamide] | 6400 mg/kg | 6400 mg/kg | – | – | – |
| O=S(=O)(Nc1ccc(Cl)cc1)c1nc2cc(Cl)ccc2[nH]1 [Example 16, 5-Chloro-N-(4-chlorophenyl)-1H-benzimidazoIe-2-sulfonamide] | 1500 mg/kg | 2000 mg/kg | 42.6 mg/kg | 48% | – |
| CCN(CC)CCCC(C)NS(=O)(=O)c1nc2cc(Cl)ccc2[nH]1 (stereo not shown) [Example 18, 5-Chloro-N-(4-diethylamino-1-methylbutyl)-1H-benzimidazole-2-sulfonamide] | 4000 mg/kg | 2000 mg/kg | 53.5 mg/kg | 41% | – |
| CCNS(=O)(=O)c1nc2c([N+](=O)[O-])cccc2[nH]1 [Example 21, N-Ethyl-4-nitro-1H-benzimidazole-2-sulfonamide] | > 1600 mg/kg | > 1600 mg/kg | – | – | – |
| O=S(=O)(NCc1ccccn1)c1nc2ccccc2[nH]1 [Example 31, N-(2-Pyridylmethyl)-1H-benzimidazole-2-sulfonamide] | > 6400 mg/kg | > 6400 mg/kg | – | – | – |
| NS(=O)(=O)c1nc2cc([N+](=O)[O-])ccc2[nH]1 [Example 34, 5-Nitro-1H-benzimidazole-2-sulfonamide] | > 6400 mg/kg | > 6400 mg/kg | 29.9 mg/kg | 63% | – |
| O=[N+]([O-])c1ccc2[nH]c(S(=O)(=O)NCCCN3CCOCC3)nc2c1 [Example 38, N-[3-(4-Morpholinopropyl)]-5-nitro-1H-benzimidazole-2-sulfonamide] | > 6400 mg/kg | > 6400 mg/kg | – | – | – |
| CCN(CC)S(=O)(=O)c1nc2ccc([N+](=O)[O-])cc2n1CC [Example 71, 6-nitro-1,N,N-triethyl-1H-benzimidazole-2-sulfonamide] | 6400 mg/kg | 6400 mg/kg | – | – | – |
| O=S1(=O)c2nc3ccccc3n2CCN1CCCN1CCOCC1 [Example 92] | 6400 mg/kg | 6400 mg/kg | – | – | – |
| COc1ccc(CCN2CCn3c(nc4ccccc43)S2(=O)=O)cc1OC [Example 99, 3,4-Dihydro-2H-2-[2-(3,4-dimethoxyphenylethyl)]-[1,2,5]-thiadiazino[5,6-a]benzimidazole 1,1-dioxide] | > 3200 mg/kg | > 3200 mg/kg | – | – | – |
| CCN1CCn2c(nc3ccc([N+](=O)[O-])cc32)S1(=O)=O [Example 127, 3,4-Dihydro-2H-2-ethyl-7-nitro-[1,2,5]-thiadiazino-[5,6-a]benzimidazole 1,1-dioxide] | > 6400 mg/kg | > 6400 mg/kg | 52.4 mg/kg | 56.3% | – |
| CCN1CCn2c(nc3cc([N+](=O)[O-])ccc32)S1(=O)=O [Example 128, 3,4-Dihydro-2H-2-ethyl-8-nitro-[1,2,5]-thiadiazino-[5,6-a]benzimidazole 1,1-dioxide] | > 3200 mg/kg | > 2200 mg/kg | – | – | – |
| CCCCN1CCn2c(nc3cc([N+](=O)[O-])ccc32)S1(=O)=O [Example 133, 2H-2-Butyl-3,4-dihydro-8-nitro-[1,2,5]-thiadiazino-[5,6-a]benzimidazole 1,1-dioxide] | > 3200 mg/kg | > 3200 mg/kg | 58.3 mg/kg | 40% | – |
| CCCCN1CCn2c(nc3ccc([N+](=O)[O-])cc32)S1(=O)=O [Example 134, 2H-2-butyl-3,4-dihydro-7-nitro-[1,2,5]-thiadiazino[5,6-a]benzimidazole 1,1-dioxide] | > 3200 mg/kg | > 3200 mg/kg | 20.7 mg/kg | 70.3% | – |
| O=[N+]([O-])c1ccc2nc3n(c2c1)CCN(CCCN1CCOCC1)S3(=O)=O [Example 142] | – | – | 17.5 mg/kg | 79.4% | Evaluation of the lesions (x ± standard deviation) [2]: 0; Inhibition of gastric lesions [2, 4]: 100% |
| CCN(CC)CCCC(C)N1CCn2c(nc3ccc([N+](=O)[O-])cc32)S1(=O)=O (stereo not shown) [Example 144, 2H-2-(4-Diethylamino-1-methylbutyl)-3,4-dihydro-7-nitro-[1,2,5,]-thiadiazino[5,6-a]benzimidazole 1,1-dioxide] | – | – | 10 mg/kg | 93.7% | Inhibition of gastric lesions [3, 4]: 100%; Evaluation of the lesions (x ± standard deviation) ([3]; stress (immobilization and cold), 10 rats): 0 |
| CCN1C(c2ccc([N+](=O)[O-])cc2)=Cn2c(nc3ccc([N+](=O)[O-])cc32)S1(=O)=O [Example 179, 2H-2-Ethyl-7-nitro-3-(4-nitrophenyl)-[1,2,5]-thiadiazino-[5,6-a]benzimidazole 1,1-dioxide] | – | > 6400 mg/kg | – | – | LD50 (mice): > 6400 mg/kg |

Source: US4943570A, “Benzimidazolesulfonamides and imidazopyridinesulfonamides, and their application as drugs” (Laboratorios Del Dr. Esteve, S.A., priority 1986, dated 1990)
